Where two headings read alike, the source gives them in different places. One block for each molecule: values may come before it.
Tested on: PMA-differentiated THP-1 cells
Experiment: IL-1β production in PMA-differentiated THP-1 cells stimulated with gramicidin (hTHP-1 assay containing 2% fetal bovine serum; Procedures 1 and 2)
Assay type: cell-based, human
Details: 2% fetal bovine serum
How it was run: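 Human monocytic THP-1 cells, matured overnight with PMA at 20 ng/ml, are seeded in low-serum (2% FBS) RPMI. Test compounds, at final concentrations from 100 down to 0.0017 μM, precede gramicidin (5 μM, 2 h) by one hour. Released IL-1β is then determined by HTRF.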

[1] = Table B1, class symbols, read-out: Average IC50 of compounds in hTHP-1 assay: hTHP-1 IC50
[2] = Homo sapiens, THP-1, Table B1, class symbols, read-out: Average IC50 of compounds in hTHP-1 assay: hTHP-1 IC50
[3] = Table B2, class symbols, read-out: hTHP-1 IC50
[4] = Homo sapiens, THP-1, Table B3, hTHP-1 assay, class symbols, read-out: IC50
[5] = Homo sapiens, THP-1, Table B2, numeric bounds, read-out: hTHP-1 IC50
[6] = Homo sapiens, THP-1, Table B2, class symbols, read-out: hTHP-1 IC50
[7] = Table B3, hTHP-1 assay, class symbols, read-out: IC50

IC50 [4]: 0.008 to 0.04 µM
SMILES: C[C@](O)(CO)c1cc(F)c([S@](N)(=O)=NC(=O)Nc2c3c(nc4c2CCC42CC2)CCC3)s1 [Example 678, (R)-5-((S)-1,2-dihydroxypropan-2-yl)-3-fluoro-N′-((1′,5′,6′,7′-tetrahydro-2′H-spiro[cyclopropane-1,3′-dicyclopenta[b,e]pyridin]-8′-yl)carbamoyl)thiophene-2-sulfonimidamide]

IC50 [5]: > 30 µM
SMILES: CC1CCc2c1nc1c(c2NC(=O)N=S(N)(=O)c2cc(C(C)(C)O)n(-c3ccccc3)n2)CCC1 (single isomer, unassigned) [Compound 664a, (S) or (R)-5-(2-Hydroxypropan-2-yl)-N′-((3-methyl-1,2,3,5,6,7-hexahydrodicyclopenta [b,e]pyridin-8-yl)carbamoyl)-1-phenyl)-1-pyrazole-3-sulfonimidamide]

IC50 (Table B4, class symbols, read-out: hTHP-1 IC50): 0.04 to 0.2 µM
SMILES: CCn1cc(F)c(S(N)(=O)=NC(=O)Nc2c3c(nc4c2CCC4)CCC3)n1 (single isomer, unassigned) [Example 761, (R) or (S)-1-ethyl-4-fluoro-N′-((1,2,3,5,6,7-hexahydrodicyclopenta[b,e]pyridin-8-yl)carbamoyl)-1H-pyrazole-3-sulfonimidamide]

IC50 [5]: > 30 µM
SMILES: CCC1CCc2c1nc1c(c2NC(=O)N=S(N)(=O)c2ccn(C(F)F)n2)CCC1 (single isomer, unassigned) [Compound 668a, (S, S) or (S, R) or (R, S) or (R, R)-1-(Difluoromethyl)-N′-((3-ethyl-1,2,3,5,6,7-hexahydrodicyclopenta [b,e]pyridin-8-yl)carbamoyl)-1H-pyrazole-3-sulfonimidamide]

IC50 [6]: 1 to 5 µM
SMILES: CC(C)(O)c1cnc(S(N)(=O)=NC(=O)Nc2c3c(nc4c2CCC42CC2)CCC3)s1 (centres unmarked) [Compound 683, 5-(2-Hydroxypropan-2-yl)-N′-((1′,5′,6′,7′-tetrahydro-2′H-spiro[cyclopropane-1,3′-dicyclopenta[b,e]pyridin]-8′-yl)carbamoyl)thiazole-2-sulfonimidamide]

IC50 [7]: 0.2 to 1 µM
SMILES: CC(=O)c1csc(S(N)(=O)=NC(=O)Nc2c3c(nc4c2CC[C@H]4C)CCC3)c1 (single isomer, unassigned) [Example 665, (R) or (S)-4-acetyl-N′-(((R)-3-methyl-1,2,3,5,6,7-hexahydrodicyclopenta[b,e]pyridin-8-yl)carbamoyl)thiophene-2-sulfonimidamide]

IC50 [4]: 1 to 5 µM
SMILES: NS(=O)(=NC(=O)Nc1c2c(nc3c1CCC31CC1)CCC2)c1ccn(CCO)n1 (centres unmarked) [Example 622, 1-(2-Hydroxyethyl)-N′-((1′,5′,6′,7′-tetrahydro-2′H-spiro[cyclopropane-1,3′-dicyclopenta[b,e]pyridin]-8′-yl)carbamoyl)-1H-pyrazole-3-sulfonimidamide]

IC50 [7]: 0.04 to 0.2 µM
SMILES: CC(C)(O)c1csc(S(N)(=O)=NC(=O)Nc2c3c(nc(C(F)(F)F)c2C2CC2)CCC3)c1 (single isomer, unassigned) [Example 646, (R) or (S)-N′-((3-((3-2-(trifluoromethyl)-6,7-dihydro-5H-cyclopenta[b]pyridin-4-yl)carbamoyl)-4-(2-hydroxypropan-2-yl)thiophene-2-sulfonimidamide]

IC50 [3]: 5 to 30 µM
SMILES: CC(C)(O)c1cnc(S(N)(=O)=NC(=O)Nc2c3c(nc4c2CCC42CC2)CCC3)s1 (single isomer, unassigned) [Compound 683b, (S) or (R)-5-(2-Hydroxypropan-2-yl)-N′-((1′,5′,6′,7′-tetrahydro-2′H-spiro[cyclopropane-1,3′-dicyclopenta[b,e]pyridin]-8′-yl)carbamoyl)thiazole-2-sulfonimidamide]

Further lines, the molecule ahead of its results:

SMILES: CC1CCc2c1nc1c(c2NC(=O)N=S(N)(=O)c2ccn(C(F)F)n2)CCC1 (single isomer, unassigned) [Compound 184d, (S,R) or (S,S)-1-(difluoro-methyl)-N′-((3-methyl-1,2,3,5,6,7-hexahydro-dicyclopenta[b,e]pyridin-8-yl)carbamoyl)-1H-pyrazole-3-sulfonimidamide]
IC50 [1]: 1 to 5 µM

SMILES: CC(C)n1ccc(S(N)(=O)=NC(=O)Nc2c3c(nc4c2CCC4)CCC3)n1 (centres unmarked) [Compound 119, N′-((1,2,3,5,6,7-hexahydrodicyclopenta[b,e]pyridin-8-yl)carbamoyl)-1-isopropyl-1H-pyrazole-3-sulfonimidamide]
IC50 [2]: 1 to 5 µM

SMILES: CCC1CCc2c1nc1c(c2NC(=O)N=S(N)(=O)c2cnc(C(C)(C)O)s2)CCC1 (centres unmarked) [Compound 662e]
IC50 [3]: 1 to 5 µM

SMILES: Cc1c(C(F)(F)F)nc2c(c1NC(=O)N=S(N)(=O)c1ccn(C(F)F)n1)CCC2 (centres unmarked) [Compound 621, 1-(Difluoromethyl)-N′-((3-methyl-2-(trifluoromethyl)-6,7-dihydro-5H-cyclopenta[b]pyridin-4-yl)carbamoyl)-1H-pyrazole-3-sulfonimidamide]
IC50 [6]: 1 to 5 µM

SMILES: CC(C)n1ccc(S(N)(=O)=NC(=O)Nc2c3c(nc4c2CCC4(C)C)CCC3)n1 (centres unmarked) [Compound 126, N′-((3,3-dimethyl-1,2,3,5,6,7-hexahydrodicyclopenta[b,e]pyridin-8-yl)carbamoyl)-1-isopropyl-1H-pyrazole-3-sulfonimidamide]
IC50 [2]: 0.04 to 0.2 µM

SMILES: CC1CCc2c1nc1c(c2NC(=O)N=S(N)(=O)c2cc(C(C)(C)O)cs2)CCC1C (centres unmarked) [Compound 131, N′-((3,5-dimethyl-1,2,3,5,6,7-hexahydrodicyclopenta[b,e]pyridin-8-yl)carbamoyl)-4-(2-hydroxypropan-2-yl)thiophene-2-sulfonimidamide]
IC50 [1]: 0.2 to 1 µM

SMILES: Cc1c(C2CC2)nc2c(c1NC(=O)N=S(N)(=O)c1cc(C(C)(C)O)cs1)CCC2 (single isomer, unassigned) [Compound 175a, (R) or (S)-N′-((2-cyclopropyl-3-methyl-6,7-dihydro-5H-cyclopenta[b]pyridin-4-yl)carbamoyl)-4-(2-hydroxypropan-2-yl)thiophene-2-sulfonimidamide]
IC50 [1]: 5 to 30 µM

SMILES: CC1(C)CCc2c1nc1c(c2NC(=O)N=S(N)(=O)c2cnc(C(C)(O)CO)s2)CCC1 (single isomer, unassigned) [Compound 201e, (R, R) and (S, R) or (R, S) and (S, S)-2-(1,2-Dihydroxypropan-2-yl)-N′-((3,3-dimethyl-1,2,3.5.6.7-hexahydrodicyclopenta [b,e]pyridin-8-yl)carbamoyl)thiazole-5-sulfonimidamide]
IC50 [3]: 0.04 to 0.2 µM

SMILES: CCc1nc2c(c(NC(=O)N=S(N)(=O)c3cc(C(C)(C)O)cs3)c1C1CC1)CCC2 (single isomer, unassigned) [Compound 654b]
IC50 [3]: 0.2 to 1 µM

SMILES: CC1CCc2c1nc1c(c2NC(=O)N=S(N)(=O)c2cc(C(C)(C)O)cs2)CCC1 (single isomer, unassigned) [Compound 141ba, (S,S) or (S,R)-4-(2-hydroxypropan-2-yl)-N′-((3-methyl-1,2,3,5,6,7-hexahy-drodicyclopenta[b,e]pyridin-8-yl)carbamoyl)thiophene-2-sulfonimidamide]
IC50 [1]: 1 to 5 µM

SMILES: CCc1c(C(F)(F)F)nc2c(c1NC(=O)N=S(N)(=O)c1sc(C(C)(C)O)cc1F)CCC2 (single isomer, unassigned) [Compound 611a, (S) or (R)-N′-((3-ethyl-2-(trifluoromethyl)-6,7-dihydro-5H-cyclopenta[b]pyridin-4-yl)carbamoyl)-3-fluoro-5-(2-hydroxypropan-2-yl)thiophene-2-sulfonimidamide]
IC50 [3]: 5 to 30 µM
